In patent publication US10703765B2 (priority 2014, dated 2020):
Where a name gives a salt, the structure may show the parent alone.

The compounds below were run against human σ1 receptor (Homo sapiens, UniProt Q99720) (assay: biochemical). Settings: not given.
Sequence of human σ1 receptor (Q99720 whole entry): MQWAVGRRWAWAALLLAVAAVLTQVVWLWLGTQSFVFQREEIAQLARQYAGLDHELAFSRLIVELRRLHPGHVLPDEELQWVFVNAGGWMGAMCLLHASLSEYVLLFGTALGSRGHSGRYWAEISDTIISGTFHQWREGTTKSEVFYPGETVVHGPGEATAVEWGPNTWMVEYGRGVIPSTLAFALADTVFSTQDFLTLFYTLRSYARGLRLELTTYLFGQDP
Assay type: binding
Parameters: μ and σ1 dual binding: key to the marks not given beside the values
CC1OC2(CCN(CCc3cncc(F)c3)CC2)CN(c2ccccc2)C1=O (stereo not shown) [Example 114, 9-(2-(5-fluoropyridin-3-yl)ethyl)-2-methyl-4-phenyl-1-oxa-4,9-diazaspiro[5.5]undecan-3-one hydrochloride] was tested, and the Ki was < 500 nM.
In the case of CC1OC2(CCN(CCc3ccccc3)CC2)CN(Cc2ccccn2)C1=O (stereo not shown) [Example 157, 2-methyl-9-phenethyl-4-(pyridin-2-ylmethyl)-1-oxa-4,9-diazaspiro[5.5]undecan-3-one hydrochloride], the Ki is reported as < 100 nM.
In the case of CC1OC2(CCN(CCc3ccccc3)CC2)CN(c2ccc3ncsc3c2)C1=O (stereo not shown) [Example 203, 4-(benzo[d]thiazol-6-yl)-2-methyl-9-phenethyl-1-oxa-4,9-diazaspiro[5.5]undecan-3-one], the “μ and σ1 dual binding” value is reported as “++”.
Cl.O=C1N(CCCO)CC2(CCN(CCc3ccccc3)CC2)OC12CC2 [Example 279, 12-(3-hydroxypropyl)-8-phenethyl-4-oxa-8,12-diazadispiro[2.1.5.3]tridecan-13-one hydrochloride] was tested, and the “μ and σ1 dual binding” value was “++”.
CC1OC2(CCN(CCc3ccc(F)cn3)CC2)CN(c2ccccc2)C1=O (stereo not shown) [Example 94, 9-(2-(5-fluoropyridin-2-yl)ethyl)-2-methyl-4-phenyl-1-oxa-4,9-diazaspiro[5.5]undecan-3-one hydrochloride] was tested, and the Ki was < 500 nM.
In the case of CC1OC2(CCN(CCc3ccccc3)CC2)CN(CCc2cccnc2)C1=O (stereo not shown) [Example 175, 2-methyl-9-phenethyl-4-(2-(pyridin-3-yl)ethyl)-1-oxa-4,9-diazaspiro[5.5]undecan-3-one dihydrochloride], the Ki is reported as < 500 nM.

Same assay, conditions: combined class from Ki-σ1 (human σ1 receptor, A1) and Ki-μ (human μ-opioid receptor, A2) radioligand binding
For Oc1ccc(CCN2CCC3(CC2)CN(c2ccccc2)CCO3)cc1 [Example 292, 4-(2-(4-phenyl-1-oxa-4,9-diazaspiro[5.5]undecan-9-yl)ethyl)phenol], the “μ and σ1 dual binding” value was “++”.

Same assay, conditions: read-out: μ and σ1 dual binding
CC1OC2(CCN(CCc3ccc(C(=O)O)cc3)CC2)CN(c2ccccc2)C1=O (stereo not shown) [Example 267, 4-(2-(2-methyl-3-oxo-4-phenyl-1-oxa-4,9-diazaspiro[5.5]undecan-9-yl)ethyl)benzoic acid] was tested, and the Ki was > 500 nM.
For O=C1COC2(CCN(CCc3ccccc3)CC2)CN1Cc1cccc([N+](=O)[O-])c1 [Example 179, 4-(3-nitrobenzyl)-9-phenethyl-1-oxa-4,9-diazaspiro[5.5]undecan-3-one], the Ki was > 500 nM.
In the case of CC1OC2(CCN(CCn3nccc3N)CC2)CN(c2ccccc2)C1=O (stereo not shown) [Example 305, 9-(2-(5-amino-1H-pyrazol-1-yl)ethyl)-2-methyl-4-phenyl-1-oxa-4,9-diazaspiro[5.5]undecan-3-one hydrochloride], the Ki is reported as > 500 nM.
With O=C1COC2(CCN(CCc3ccccc3)CC2)CN1Cc1ncc[nH]1 [Example 284, 4-((1H-imidazol-2-yl)methyl)-9-phenethyl-1-oxa-4,9-diazaspiro[5.5]undecan-3-one hydrochloride] the Ki was > 500 nM.
For CC1OC2(CCN(CCc3ncccc3[N+](=O)[O-])CC2)CN(c2ccccc2F)C1=O (stereo not shown) [Example 25, 4-(2-fluorophenyl)-2-methyl-9-(2-(3-nitropyridin-2-yl)ethyl)-1-oxa-4,9-diazaspiro[5.5]undecan-3-one], the Ki was > 500 nM.
With C=C1OC2(CCN(CCc3ccccc3)CC2)CN(c2ccccc2)C1=O [Example 21, 2-methylene-9-phenethyl-4-phenyl-1-oxa-4,9-diazaspiro[5.5]undecan-3-one] the Ki was > 500 nM.
CC(C)C1OC2(CCN(CCc3ccccc3)CC2)CN(c2ccccc2)C1=O (stereo not shown) [Example 17, 2-isopropyl-9-phenethyl-4-phenyl-1-oxa-4,9-diazaspiro[5.5]undecan-3-one hydrochloride] was tested, and the Ki was < 100 nM.
With O=C1N(Cc2ccc(C(F)(F)F)cn2)CC2(CCN(CCc3ccccc3)CC2)OC12CC2 [Example 187, 8-phenethyl-12-{[5-(trifluoromethyl)pyridin-2-yl]methyl}-4-oxa-8,12-diazadispiro[2.1.5.3]tridecan-13-one dihydrochloride] the Ki was < 100 nM.
In the case of CC(C)=C1OC2(CCN(CCc3scnc3C)CC2)CN(c2ccccc2F)C1=O [Example 141, 4-(2-fluorophenyl)-9-(2-(4-methylthiazol-5-yl)ethyl)-2-(propan-2-ylidene)-1-oxa-4,9-diazaspiro[5.5]undecan-3-one hydrochloride], the Ki is reported as < 500 nM.
With O=C1N(c2ccccc2F)CC2(CCN(CCc3ccccc3)CC2)OC12CC2 [Example 224, 12-(2-fluorophenyl)-8-phenethyl-4-oxa-8,12-diazadispiro[2.1.5.3]tridecan-13-one] the Ki was < 100 nM.
For CC1OC2(CCN(CCc3ccc(S(N)(=O)=O)cc3)CC2)CN(c2ccccc2)C1=O (stereo not shown) [Example 108, 4-(2-(2-methyl-3-oxo-4-phenyl-1-oxa-4,9-diazaspiro[5.5]undecan-9-yl)ethyl)benzenesulfonamide], the Ki was > 500 nM.
With CC1OC2(CCN(CCC(=O)O)CC2)CN(c2ccccc2)C1=O (stereo not shown) [Example 269, 3-(2-methyl-3-oxo-4-phenyl-1-oxa-4,9-diazaspiro[5.5]undecan-9-yl)propanoic acid] the Ki was > 500 nM.
In the case of CCOC(=O)c1cccc(CCN2CCC3(CC2)CN(c2ccccc2F)C(=O)C(C)O3)c1 (stereo not shown) [Example 143, ethyl 3-(2-(4-(2-fluorophenyl)-2-methyl-3-oxo-1-oxa-4,9-diazaspiro[5.5]undecan-9-yl)ethyl)benzoate], the Ki is reported as > 500 nM.
In the case of Nc1cccc(CCN2CCC3(CC2)CN(Cc2ccc(C(F)(F)F)cn2)C(=O)CO3)c1 [Example 235, 9-(3-aminophenethyl)-4-((5-(trifluoromethyl)pyridin-2-yl)methyl)-1-oxa-4,9-diazaspiro[5.5]undecan-3-one], the Ki is reported as > 500 nM.
COC[C@H]1OC2(CCN(CCc3ccccc3)CC2)CN(c2ccccc2)C1=O [Example 12b, (R)-2-(methoxymethyl)-9-phenethyl-4-phenyl-1-oxa-4,9-diazaspiro[5.5]undecan-3-one] was tested, and the Ki was < 100 nM.
